IC50 data for 87 molecules are collected here from PubChem BioAssay AID2305 (GlaxoSmithKline (GSK), 2010).

This assay has as its system P. falciparum 3D7 growth, pLDH absorbance. In words: P. falciparum 3D7 growth inhibition, dose response, strain 3D7 (AID 2305).

pIC50: −log10 of the molar value.

Usually pIC50 stands for the IC50 on a negative log10 scale, so that one unit is a factor of ten. Read a high pIC50 as a small IC50. Turning to `O=C(Nc1cccc(CN2CCCN(CC3CC3)CC2)c1)c1ccc(-c2ccccc2)cc1`, the pIC50 is 6.03. As for `Clc1ccc(C2CCN(CCCOc3ccc4c(c3)CCNCC4)CC2)cc1`, the figure is 6.12; as for `Nc1c2c(nc3ccc(NC(=O)CCCCCc4ccccc4)cc13)CCCC2`, 6.36.

As for `CCn1ncc2c(N3CCCC3=O)cc(C(=O)N[C@@H](Cc3ccccc3)[C@H](O)CNC(C)(C)c3cccc(OC)c3)cc21`, the pIC50 is 6.96. As for `CCOC(=O)C1=C(C)NC2=C(C(=O)CC(C)(C)C2)C1c1ccc(Cl)cc1` (configuration not stated), the figure is 6.04; as for `CS(=O)(=O)CCNCc1ccc(-c2cc3c(Nc4ccc(OCc5cccc(F)c5)c(Cl)c4)ncnc3s2)[nH]1`, 6.08; as for `S=C(NCCN1CCOCC1)Nc1ccccc1`, 5.99.

The molecule `COc1cc2nc(Nc3ccc4c(ccn4Cc4ccccc4)c3)nc(Nc3ccc4c(ccn4Cc4ccccc4)c3)c2cc1OC` showed a pIC50 of 6.19. In the case of `CN(C)c1ccc(-c2ccc(C(=O)NC3CCN(Cc4ccc(C(C)(C)C)cc4)CC3)s2)cc1`, the pIC50 was 6.01. As for `COc1ccc(-c2cnc3[nH]cc(-c4ccc(C(=O)O)cc4)c3c2)cn1`, the figure is 6.27; as for `COc1ccc(N2CCN(CCCOc3ccc(NC(=O)c4cc(Cl)cc(Cl)c4)cc3)CC2)c(OC)c1`, 6.05; as for `O=[N+]([O-])c1ccccc1C=NNc1ccnc2ccc(C(F)(F)F)cc12`, 6.15.

Turning to `OCCN1CCN(Cc2cccc(-c3ccc(-c4nc5ccc(C(F)(F)F)cc5[nH]4)s3)c2)CC1`, the pIC50 was 7.05. Then `Cn1cc(CN2CCCC(COC(c3ccccc3)c3ccccc3)C2)cn1` (configuration not stated), with 6.11; and `O=C(C=Cc1ccc(Cl)c(Cl)c1)NCCCCCN1CCC(CCNS(=O)(=O)c2ccc(Br)cc2)CC1`, with 5.95; and `COc1ccc(-c2ccc(CNC(=O)c3ccc(C#N)cc3)c(F)c2)cc1CN1CCCN(C)CC1`, with 5.94. Then `CCC(C)CN1CCC(N(C)c2cc(NC(=O)c3ccc(F)cc3)ccn2)CC1` (configuration not stated), with 6.01.

Consider `O=C(Nc1ccc(N2CCN(Cc3cccc(F)c3)CC2)cc1)c1cccs1`, for which the pIC50 is 6.17. As for `CCNc1cc(C(=O)N[C@@H](Cc2ccccc2)[C@H](O)CNC23CCC(CC2)CC3)cc(N2CCCCS2(=O)=O)c1`, the figure is 7.22. As for `CC(=O)Nc1ncc(C(=O)Nc2cccc(-c3ccc(-c4nc5c(C)cccc5[nH]4)cc3)c2)s1`, the figure is 6.19; as for `COc1ccc(NC(=O)c2ccc(NC(=O)c3ccc(Cl)cc3)cc2)cc1N1CCN(C)CC1`, 6.07. Then `O=C(Nc1ccc(F)cc1)N1CCCN(c2ccnc3cc(Cl)ccc23)CC1`, with 6.10; and `CCCN(Cc1nnc(-c2ccco2)o1)C(=O)C1CCN(c2ncc(C(F)(F)F)cc2Cl)CC1`, with 6.16. `N#Cc1cccc(C(=O)Nc2ccc(-c3cccc(CN4CCCC4)c3)cc2)c1` had a negative logarithm of the IC50 (pIC50) of 6.15. In turn, `CC(C)CCCC(C)(C)NC[C@@H](O)[C@H](Cc1ccccc1)NC(=O)c1cccc(OCC2CC2)c1` had a pIC50 of 6.08. As for `CC(CCc1ccc(OCc2ccccc2)cc1)NCC(O)c1ccccc1` (configuration not stated), the figure is 5.96.

`C[C@H](Cc1ccc(OCCNC[C@H](O)c2cccc(Cl)c2)cc1)NC[C@H](O)c1ccc(Cl)c(Cl)c1` showed a pIC50 of 6.02. `CN(c1ccccc1)S(=O)(=O)c1cccc(NC(=O)c2ccc(-n3ccnc3)c([N+](=O)[O-])c2)c1` gave a pIC50 of 5.95. As for `Fc1cccc(COc2ccc(Nc3ncnc4ccc(C#C[C@H]5CCCN5)cc34)cc2Cl)c1`, the figure is 6.06. In turn, `CN(C)c1ccc(-c2csc(C(=O)NC3CCCCN(Cc4ccc(C(C)(C)C)cc4)C3)c2)cc1` (configuration not stated) had a pIC50 of 5.95. As for `CCN(CCCN1CCCCC1)c1cc(C)nc(Nc2cc(C(F)(F)F)ccc2C)n1`, the figure is 6.07; as for `COc1ccc(S(=O)(=O)N2CCC3(CC2)OCC(=O)NC3c2ccc(Cl)c(Cl)c2)cc1` (configuration not stated), 6.19. Molecule `CC(=O)c1c[nH]c2ccc(/C=C/C(=O)NC3CCC(CCN4CCc5ccc(C#N)cc5CC4)CC3)cc12` (configuration not stated) showed a pIC50 of 6.30.

For `CN1CCC(NCc2ccc(-c3ccc(S(=O)(=O)NCc4ccccc4)s3)cc2)CC1`, the negative logarithm of the IC50 (pIC50) is 6.11. As for `COc1ccc(-c2ccc(NC(=O)c3cccc(Cl)c3)cc2)cc1CNC(C)C`, the negative-log IC50 (pIC50) is 6.33.

As for `Cc1cc(Nc2ccc3ccccc3c2)n2ncnc2n1`, the pIC50 was 6.77.

`CCN(CC)C(=NCCCCCCN=C(/N=C(\N)c1ccc(Cl)cc1)N(CC)CC)/N=C(\N)c1ccc(Cl)cc1` showed a pIC50 of 6.42. Then `CC1(C)CCC(=Cc2ccc(Cl)cc2)CC1(O)Cn1ccnc1` (configuration not stated), with 6.13; and `CN(C)CCOc1cc(NC(=O)Nc2ccc3c(c2)CCCC3=O)ccc1I`, with 6.03; and `Cc1ccccc1C1CCN(C2CCC(NC(=O)c3cc(-c4ccccc4)oc3C)CC2)CC1` (configuration not stated), with 5.99. Then `COc1cc2c(cc1COc1ccccc1)CCN1Cc3cc(OC)c(OC)cc3CC21` (configuration not stated), with 6.82. For the molecule `Cc1cc(C)c2cc(CNCCCNc3nc4ccccc4[nH]3)[nH]c2c1`, the pIC50 is 6.11. As for `O=C(Nc1ccc(-c2nc3ccccc3[nH]2)cc1)c1ccc(S(=O)(=O)N2CCc3ccccc32)cc1`, the figure is 6.13. For `Cn1cc(CCNc2ccnc(NCCc3coc4ccccc34)n2)c2ccccc21`, the pIC50 was 5.97. `CCOc1ccc(NC(=O)c2cn3nc(-c4ccc(OCC)cc4)cc3nc2C2CCNCC2)cc1` had a pIC50 of 6.29. The molecule `O=C(Nc1cccc(CN2CCCN(Cc3ccccc3)CC2)c1)c1ccc(-c2ccccc2)cc1` showed a pIC50 of 5.89. Then `COCCNCc1cccc(-c2ccc3c(Nc4ccc(Oc5ccccc5)cc4)ccnc3c2)c1`, with 6.28. As for `Cc1ccc(S(=O)(=O)NC2CCN(CCNC(=O)Nc3cc(C)nc4ccccc34)C2)cc1` (configuration not stated), the figure is 5.98; as for `CC(=O)Nc1cccc(Nc2nccc(Nc3ccc(Oc4ccccc4)cc3)n2)c1`, 6.12. Consider `CN1CCCN(Cc2ccc(-c3cccc(NC(=O)c4ccc(C#N)cc4)c3)cc2)CC1`, for which the pIC50 was 6.13. As for `O=C(/C=C/c1ccc(C(F)(F)F)cc1)NCCCCCN1CCN(C(=O)Nc2ccc(Cl)c(Cl)c2)CC1`, the figure is 6.06. In turn, `Cc1ccc(C(NC(=O)Cc2ccccc2)c2ccc3cccnc3c2O)cc1` (configuration not stated) had a pIC50 of 6.21. The molecule `FC(F)(F)c1ccc2nc(-c3ccc(-c4cccc(CNCc5cnn(-c6ccccc6)n5)c4)s3)[nH]c2c1` showed a pIC50 of 6.48.

`CC(C)(C)Oc1ccc(C[C@@H]2NC3(C(=O)N(Cc4ccc(Cl)c(Cl)c4)c4ccccc43)C3C(=O)N(c4ccc(Br)cc4)C(=O)C32)cc1` (some centres not stated) showed a pIC50 of 5.98. Then `COc1cccc(NC(=O)NC2CCN(CCCCCNC(=O)/C=C/c3ccc(Cl)c(Cl)c3)CC2)c1`, with 6.11. `Cc1ccoc1C(=O)Nc1cccc(-c2cccc(-c3nc4ccccc4[nH]3)c2)c1`: the pIC50 was 5.91. `CCc1nc(N)nc(N)c1CCCOc1ccccc1Cl` showed a negative-log IC50 (pIC50) of 7.00.

Molecule `O=C(/C=C/c1ccc(Cl)c(Cl)c1)NCCCCCN1CCCN(C(=O)Nc2cc(Cl)cc(Cl)c2)CC1` gave a negative logarithm of the IC50 (pIC50) of 6.10. `Cc1cc(N[C@@H](Cc2ccccc2)C(=O)NCc2cccc(F)c2)nc(NCC2CCCCC2)n1` showed a pIC50 of 6.07.

Take `COc1cc2nc(-c3ccccc3)nc(N3CCN(C(=O)c4ccco4)CC3)c2cc1OC`: the pIC50 was 5.85.

`CCn1c(SCC(=O)Nc2cc(C(F)(F)F)ccc2Cl)nc2ccccc2c1=O` showed a pIC50 of 6.40. Then `CCNC(=O)NC1CCN(Cc2c(-c3cccs3)nc3ccccc3c2C(=O)N[C@@H](C)C2CCCCC2)CC1`, with 7.05; and `CCOc1cc2c(cc1OCC)C(c1ccc(O)c(Cl)c1)NCC2` (configuration not stated), with 6.10. As for `COc1ccc(NC(=O)[C@H](CC(C)C)Nc2cc(C)nc(NCCc3ccccc3OC)n2)cc1`, the figure is 6.00; as for `NCCCCc1c(-c2ccc(Cl)c(Cl)c2)[nH]c2ccc(Cl)cc12`, 6.04; as for `COc1cc(C2=NN(S(=O)(=O)c3c(C)cc(C)cc3C)CCCC2)ccc1Cl`, 6.11.

`Cc1nc2ccccc2n1C1C[C@H]2CC[C@@H](C1)N2Cc1nccn1-c1ccccc1` (some centres not stated) had a pIC50 of 6.43. As for `Cc1cc(C)cc(CC(=O)N2CCC(n3c(C)nc4ccc(C)cc43)CC2)c1`, the figure is 6.28; as for `CCCCc1ccc(Cc2cnc3nc(N)nc(N)c3c2C)cc1`, 6.64. `Cc1cccn2c(=O)c3cc(C(=O)NCc4cccnc4)c(=N)n(CCc4ccccc4)c3nc12` showed a pIC50 of 6.15. Then `COc1cccc(OC)c1-c1ccccc1NC(=O)N1CCCc2cc(C)ccc21`, with 6.09. As for `CS(=O)(=O)N1CC2(CCN(CCC(NC(=S)Nc3ccccc3)c3ccc(Cl)c(Cl)c3)CC2)c2ccccc21` (configuration not stated), the figure is 6.08; as for `CCn1nc(C(=O)NC2CCOc3ccccc32)c2ccccc2c1=O` (configuration not stated), 5.91. With `COc1cc(OC)c2c(C)cc(NCCCN3CCOCC3)nc2c1`, the negative logarithm of the IC50 (pIC50) was 5.97.

`c1ccc(Oc2ccc(Nc3ccnc4cc(-c5ccc(CN6CCCCC6)o5)ccc34)cc2)nc1` gave a pIC50 of 6.48. Then `O=C(/C=C/c1ccc(Cl)c(Cl)c1)NCCCCCN1CCC(CCNC(=O)Cc2ccc(Cl)cc2)CC1`, with 5.94; and `CN(c1ccc(NC(=O)Nc2cc(C(F)(F)F)ccc2F)cc1)c1ccnc(NCCN2CCOCC2)n1`, with 6.29. Molecule `COc1ccc(NC(=O)/C=C/c2ccccc2Cl)cc1OCCN1CCC(N(C)C)CC1` had a pIC50 of 6.01. Then `COc1ccc(NC(=O)N2CCN(CCCCCNC(=O)/C=C/c3ccc(C(F)(F)F)cc3)CC2)cc1Cl`, with 6.07. As for `CN(C(=O)c1cc2c(-c3cncnc3)cccc2[nH]1)c1ccccc1`, the figure is 6.20; as for `Cc1ccc(NC(=O)c2ccnc(N3CCN(c4ccncc4)CC3)c2)cc1F`, 6.06.

The molecule `Cc1cccc2[nH]c(-c3ccc(-c4cccc(CNCC5CCCO5)c4)cc3)nc12` (configuration not stated) had a pIC50 of 6.15. The molecule `COc1ccc(CC(=O)Nc2ccc(Nc3nc(C)cc(N(C)C)n3)cc2)cc1` had a pIC50 of 6.10. Molecule `CCCc1cc(Cc2cnc(N)nc2N)cc(OCCCCCC(=O)O)c1OC` gave a pIC50 of 6.80. As for `CNC(=O)C(NC(=O)c1ccccc1C(=O)OC)c1ccccc1` (configuration not stated), the figure is 6.25; as for `COc1ccc(-c2cnc3ccc(NC4CCC(O)CC4)nn23)cn1` (configuration not stated), 6.15. Then `CN1CCC(c2c[nH]c3ccc(NC(=O)Nc4ccc(-c5ccncc5)c(Cl)c4Cl)cc23)CC1`, with 6.15.
